Assay results published in patent US20230159511A1, “TETRAHYDROISOQUINOLINE COMPOUNDS AS NRF2 ACTIVATORS” (C4X Discovery Limited, priority 2020, published 2023).
Like-named read-outs stand apart in the source and are kept apart here.

Assays:
[1] = system: NRF2 mediated gene NAD(P)H:quinone acceptor oxidoreductase 1 (NQO1) in BEAS-2B cells; test: Beas2B NQO1 mRNA Cell Based Assay; set-up: species or system human; conditions: BEAS-2B cells, compound for 24 h, increase in NQO1 mRNA compared to vehicle (0.1% DMSO) control, read-out: EC50
How it was run: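 BEAS-2B cells treated 24 h with compound; NQO1 mRNA measured by one-step TaqMan RT-PCR on crude lysates, normalised to beta actin by ΔΔCT. Fold increase over 0.1% DMSO vehicle; EC50 from four-parameter logistic fit.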

[2] = target: T1, human KEAP1 (N-term, residues 321-609) (Homo sapiens, UniProt Q14145); test: KEAP1 Kelch Fluorescence Polarization (FP) Assay; type: binding; conditions: inhibition of Kelch domain-NRF2 interaction; 2 nM FITC-labelled NRF2 peptide, 25 nM KEAP1, 1 h room temperature; compounds below 10 nM cannot be differentiated
T1 construct: human KEAP1 (N-term, residues 321-609)
T1 sequence (Q14145 321-609): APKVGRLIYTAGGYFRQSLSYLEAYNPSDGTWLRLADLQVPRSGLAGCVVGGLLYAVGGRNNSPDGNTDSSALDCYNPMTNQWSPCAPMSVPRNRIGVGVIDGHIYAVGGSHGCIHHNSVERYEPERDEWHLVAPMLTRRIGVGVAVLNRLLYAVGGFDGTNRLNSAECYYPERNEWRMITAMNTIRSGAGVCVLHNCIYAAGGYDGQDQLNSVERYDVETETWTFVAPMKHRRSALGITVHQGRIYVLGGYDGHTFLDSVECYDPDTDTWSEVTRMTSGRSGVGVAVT
How it was run: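 FP competition: 2 nM FITC-NRF2 peptide (LDEETGEFL) with 25 nM KEAP1 Kelch domain, pH 8.0 Tris buffer, 0.5% DMSO, 1 h at room temperature; 12-point 1:3 dilutions from 10 μM.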

SMILES | EC50 ([1]; Homo sapiens) | IC50 [2] | EC50 [1]
CNC(=O)[C@H]1CCCC[C@H]1C(=O)N1CCc2c(Cl)ccc(OCc3nnc4ccccn34)c2[C@H]1CN1Cc2ccccc2C1=O [Example 77, (1S,2R)-2-((S)-8-([1,2,4]triazolo[4,3-a]pyridin-3-ylmethoxy)-5-chloro-1-((1-oxoisoindolin-2-yl)methyl)-1,2,3,4-tetrahydroisoquinoline-2-carbonyl)-N-methylcyclohexane-1-carboxamide] | 0.077 µM | 0.0072 µM | 
CNC(=O)[C@@]1(C)CCCC[C@H]1C(=O)N1CCc2c(Cl)ccc(OCc3cn(C)nn3)c2[C@H]1CN1C[C@H](C)CC1=O [Example 104, (1S,2R)-2-((S)-5-chloro-8-((1-methyl-1H-1,2,3-triazol-4-yl)methoxy)-1-(((R)-4-methyl-2-oxopyrrolidin-1-yl)methyl)-1,2,3,4-tetrahydroisoquinoline-2-carbonyl)-N,1-dimethylcyclohexane-1-carboxamide] | 0.784 µM | 0.011 µM | 
NC(=O)[C@H]1CCCC[C@H]1C(=O)N1CCc2cccc(OCCCC(=O)N3CCCC3)c2[C@H]1CN1C(=O)c2ccccc2C1=O [Example 1, (1S,2R)-2-((S)-1-((1 ,3-dioxoisoindolin-2-yl)methyl)-8-(4-oxo-4-(pyrrolidin-1-yl)butoxy)-1,2,3,4-tetrahydroisoquinoline-2-carbonyl)cyclohexane-1-carboxamide] | 2.03 µM | 0.901 µM | 
CNC(=O)N1CCC[C@H]1C(=O)N1CCc2c(Cl)ccc(OCc3cn(C)nn3)c2[C@H]1CN1CCCC1=O [Example 89, (S)-2-((S)-5-chloro-8-((1-methyl-1H-1,2,3-triazol-4-yl)methoxy)-1-((2-oxopyrrolidin-1-yl)methyl)-1,2,3,4-tetrahydroisoquinoline-2-carbonyl)-N-methylpyrrolidine-1-carboxamide] | 8.72 µM | 0.019 µM | 
CNC(=O)[C@@]1(C)CCCC[C@H]1C(=O)N1CCc2c(Cl)ccc(OCc3nnn(C)c3C3CC3)c2[C@H]1CN1CC2(CC2)CC1=O [Example 103, (1S,2R)-2-((S)-5-chloro-8-((5-cyclopropyl-1-methyl-1H-1,2,3-triazol-4-yl)methoxy)-1-((6-oxo-5-azaspiro[2.4]heptan-5-yl)methyl)-1,2,3,4-tetrahydroisoquinoline-2-carbonyl)-N,1-dimethylcyclohexane-1-carboxamide] | 0.057 µM | 0.0071 µM | 
CNC(=O)[C@H]1CCCC[C@H]1C(=O)N1CCc2c(Cl)ccc(OCc3nnn(C)c3C(F)F)c2[C@H]1CN1Cc2ccccc2C1=O [Example 76, (1S,2R)-2-((S)-5-chloro-8-((5-(difluoromethyl)-1-methyl-1H-1,2,3-triazol-4-yl)methoxy)-1-((1-oxoisoindolin-2-yl)methyl)-1,2,3,4-tetrahydroisoquinoline-2-carbonyl)-N-methylcyclohexane-1-carboxamide] | 0.166 µM | 0.011 µM | 
Cn1nnc(COc2c(F)cc(Cl)c3c2[C@@H](CN2CC4(CC4)CC2=O)N(C(=O)[C@@H]2CCCC[C@]2(C)C(N)=O)CC3)c1C(F)F [Example 107, (1S,2R)-2-((S)-5-chloro-8-((5-(difluoromethyl)-1-methyl-1H-1,2,3-triazol-4-yl)methoxy)-7-fluoro-1-((6-oxo-5-azaspiro[2.4]heptan-5-yl)methyl)-1,2,3,4-tetrahydroisoquinoline-2-carbonyl)-1-methylcyclohexane-1-carboxamide] | 0.037 µM | 0.0062 µM | 
CNC(=O)[C@H]1CCCC[C@H]1C(=O)N1CCc2c(Cl)ccc(OCc3nnn(C)c3C(F)F)c2[C@H]1CN1CCCC1=O [Example 58, (1S,2R)-2-((S)-5-chloro-8-((5-(difluoromethyl)-1-methyl-1H-1,2,3-triazol-4-yl)methoxy)-1-((2-oxopyrrolidin-1-yl)methyl)-1,2,3,4-tetrahydroisoquinoline-2-carbonyl)-N-methylcyclohexane-1-carboxamide] | 0.206 µM | 0.011 µM | 
CNC(=O)[C@]1(C)CCCC[C@@H]1C(=O)N1CCc2c(Cl)ccc(OCc3nnn(C)c3C(F)F)c2[C@@H]1CN1CC2(CC2)CC1=O [Example 98, (1R,2S)-2-((R)-5-chloro-8-((5-(difluoromethyl)-1-methyl-1 H-1,2,3-triazol-4-yl)methoxy)-1-((6-oxo-5-azaspiro[2.4]heptan-5-yl)methyl)-1,2,3,4-tetrahydroisopuinoline-2-carbonyl)-N,1-dimethylcyclohexane-1-carboxamide] |  | 0.006 µM | 0.041 µM
CNC(=O)[C@H]1CCCC[C@H]1C(=O)N1CCc2c(Cl)ccc(OCc3nnn(C)c3C(F)F)c2[C@H]1CN1CC2(CC2)CC1=O [Example 114, (1S,2R)-2-((S)-5-chloro-8-((5-(difluoromethyl)-1-methyl-1H-1,2,3-triazol-4-yl)methoxy)-1-((6-oxo-5-azaspiro[2.4]heptan-5-yl)methyl)-1,2,3,4-tetrahydroisoquinoline-2-carbonyl)-N-methylcyclohexane-1-carboxamide] | 0.23 µM | 0.0091 µM | 
O=C(NCC(F)(F)CO)[C@H]1CCCC[C@H]1C(=O)N1CCc2c(Cl)ccc(OCc3noc4ccccc34)c2[C@H]1CN1CCCC1=O [Example 78, (1S,2R)-2-((S)-8-(benzo[d]isoxazol-3-ylmethoxy)-5-chloro-1-((2-oxopyrrolidin-1-yl)methyl)-1,2,3,4-tetrahydroisoquinoline-2-carbonyl)-N-(2,2-difluoro-3-hydroxypropyl)cyclohexane-1-carboxamide] | > 10 µM | 0.11 µM | 
CNC(=O)[C@@]1(C)CCCC[C@H]1C(=O)N1CCc2c(Cl)ccc(OCc3nnn(C)c3C3CC3)c2[C@H]1CN1C[C@H](C)CC1=O [Example 113, (1S,2R)-2-((S)-5-chloro-8-((5-cyclopropyl-1-methyl-1H-1,2,3-triazol-4-yl)methoxy)-1-(((R)-4-methyl-2-oxopyrrolidin-1-yl)methyl)-1,2,3,4-tetrahydroisoquinoline-2-carbonyl)-N,1-dimethylcyclohexane-1-carboxamide] | 0.299 µM | 0.0109 µM | 
CNC(=O)[C@@]1(C)CCCC[C@H]1C(=O)N1CCc2c(Cl)ccc(OCc3noc4ccccc34)c2[C@H]1CN1CCCC1=O [Example 83, (1S,2R)-2-((S)-8-(benzo[d]isoxazol-3-ylmethoxy)-5-chloro-1-((2-oxopyrrolidin-1-yl)methyl)-1,2,3,4-tetrahydroisoquinoline-2-carbonyl)-N,1-dimethylcyclohexane-1-carboxamide] | 0.473 µM | 0.012 µM | 
CNC(=O)[C@@]1(C)CCCC[C@H]1C(=O)N1CCc2c(Cl)ccc(OCc3nnn(C)c3C)c2[C@H]1CN1CCCC1=O [Example 90, (1S,2R)-2-((S)-5-chloro-8-((1,5-dimethyl-1H-1,2,3-triazol-4-yl)methoxy)-1-((2-oxopyrrolidin-1-yl)methyl)-1,2,3,4-tetrahydroisoquinoline-2-carbonyl)-N,1-dimethylcyclohexane-1-carboxamide] | 0.094 µM | 0.0079 µM | 
CNC(=O)[C@H]1CCCC[C@H]1C(=O)N1CCc2c(Cl)ccc(OCc3noc4ncccc34)c2[C@H]1CN1CCCC1=O [Example 70, (1S,2R)-2-((S)-5-chloro-8-(isoxazolo[5,4-b]pyridin-3-ylmethoxy)-1-((2-oxopyrrolidin-1-yl)methyl)-1,2,3,4-tetrahydroisoquinoline-2-carbonyl)-N-methylcyclohexane-1-carboxamide] | 0.295 µM | 0.029 µM | 
